Assay results: PubChem BioAssay AID1918938 (Molecular Pharmacology Branch, DTP, NCI, 2023)

Tested on: 556581-035-R-J1-PDC complex spheroid viability
Experiment: Anticancer human tumor 556581-035-R-J1-PDC patient-derived ovarian carcinoma cell line growth inhibition
Conditions: for IC50: curve of first compound; for viability, T/C: stronger effect = lower value
Procedure, shortened: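 Multicellular complex spheroids of tumor cells with human endothelial cells (HUVEC) and mesenchymal stem cells; the LSD1 inhibitor iadademstat was combined with standard-of-care or investigational agents. Top concentration at or near clinical Cmax, half-log dilutions; final DMSO ≤0.25%.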
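Note: spheroids exposed to agents for seven days.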
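Throughout, for viability, T/C: 100% = DMSO vehicle control wells.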

Structure (SMILES): CC[C@@]1(O)C(=O)OCc2c1cc1n(c2=O)Cc2cc3c(CN(C)C)c(O)ccc3nc2-1 + NC1CCC(NC2CC2c2ccccc2)CC1
- IC50 (second compound 0.1 µM): 14.7 nM
- IC50 (second compound 0.316 µM): 13.9 nM
- IC50 (second compound 1 µM): 14.4 nM
- IC50 (second compound 3.16 µM): 18.8 nM
- IC50 (second compound 10 µM): 11.5 nM
- viability, T/C (second compound 0.1 µM, first compound 0.000316 µM): 78.7%
- viability, T/C (second compound 0.1 µM, first compound 0.001 µM): 91.5%
- viability, T/C (second compound 0.1 µM, first compound 0.00316 µM): 79%
- viability, T/C (second compound 0.1 µM, first compound 0.01 µM): 57.6%
- viability, T/C (second compound 0.1 µM, first compound 0.0316 µM): 31.9%
- viability, T/C (second compound 0.1 µM, first compound 0.1 µM): 9.52%
- viability, T/C (second compound 0.316 µM, first compound 0.000316 µM): 91.4%
- viability, T/C (second compound 0.316 µM, first compound 0.001 µM): 82.2%
- viability, T/C (second compound 0.316 µM, first compound 0.00316 µM): 81.8%
- viability, T/C (second compound 0.316 µM, first compound 0.01 µM): 55%
- viability, T/C (second compound 0.316 µM, first compound 0.0316 µM): 32.5%
- viability, T/C (second compound 0.316 µM, first compound 0.1 µM): 13.3%
- viability, T/C (second compound 1 µM, first compound 0.000316 µM): 79%
- viability, T/C (second compound 1 µM, first compound 0.001 µM): 81.3%
- viability, T/C (second compound 1 µM, first compound 0.00316 µM): 72.2%
- viability, T/C (second compound 1 µM, first compound 0.01 µM): 58%
- viability, T/C (second compound 1 µM, first compound 0.0316 µM): 32.8%
- viability, T/C (second compound 1 µM, first compound 0.1 µM): 10.1%
- viability, T/C (second compound 3.16 µM, first compound 0.000316 µM): 72.5%
- viability, T/C (second compound 3.16 µM, first compound 0.001 µM): 89.8%
- viability, T/C (second compound 3.16 µM, first compound 0.00316 µM): 73.9%
- viability, T/C (second compound 3.16 µM, first compound 0.01 µM): 63.8%
- viability, T/C (second compound 3.16 µM, first compound 0.0316 µM): 38.5%
- viability, T/C (second compound 3.16 µM, first compound 0.1 µM): 10%
- viability, T/C (second compound 10 µM, first compound 0.000316 µM): 64.4%
- viability, T/C (second compound 10 µM, first compound 0.001 µM): 67.1%
- viability, T/C (second compound 10 µM, first compound 0.00316 µM): 64.8%
- viability, T/C (second compound 10 µM, first compound 0.01 µM): 51.8%
- viability, T/C (second compound 10 µM, first compound 0.0316 µM): 29.2%
- viability, T/C (second compound 10 µM, first compound 0.1 µM): 7.41%
